The record followed here is publication PMC6268181, “Synthesis of Novel IP Agonists via N-Aminoethyl Cyclic Amines Prepared by Decarboxylative Ring-Opening Reactions” (Molecules, 2012).

In this assay the target is T1, human IP receptor (PGI2 receptor) (Homo sapiens, UniProt P43119).
T1 construct: gene PTGIR
The assay is described as follows: competitive binding assay with membrane fractions of CHO or COS-7 cells expressing the receptor; also cAMP increase in COS-7 cells expressing human IP.

Where a name gives a salt, the structure may show the parent alone.

T1 sequence (P43119 1-383): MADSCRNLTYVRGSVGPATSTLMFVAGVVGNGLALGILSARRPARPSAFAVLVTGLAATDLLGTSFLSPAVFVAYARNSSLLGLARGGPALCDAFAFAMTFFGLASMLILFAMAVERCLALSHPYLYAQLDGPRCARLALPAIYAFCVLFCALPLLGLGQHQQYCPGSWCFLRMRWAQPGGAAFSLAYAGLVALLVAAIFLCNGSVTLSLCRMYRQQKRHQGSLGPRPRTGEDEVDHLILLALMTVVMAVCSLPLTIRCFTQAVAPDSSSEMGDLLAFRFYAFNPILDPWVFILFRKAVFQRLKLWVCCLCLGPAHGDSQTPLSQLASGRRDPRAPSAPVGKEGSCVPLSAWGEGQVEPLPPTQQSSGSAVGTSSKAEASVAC

Usually Ki stands for a measure of affinity in units of concentration, obtained from inhibition or displacement. Low values mean tighter binding, high ones weaker binding. Compound `O=C(O)COC1CCN(CCN(C(=O)c2ccc3c(c2)OCO3)c2ccc(Cl)cc2)CC1` [compound 2, 2-((1-(2-(N-(4-Chlorophenyl)benzo[d][1,3]dioxole-5-carboxamido)ethyl)piperidin-4-yl)oxy)acetic acid phosphoric acid salt] displayed a Ki of 310 nM.
